For assay [1], the target named is recombinant human SOS1 polypeptide (amino acids 560-1049) (Homo sapiens (Human), UniProt Q07889). Briefly: biochemical. The class given is binding. To be noted: HTRF displacement, Cy5 labelled tracer, Morrison equation for competitive binding; read-out: Ki, Inhibition of Labeled Tracer Binding to SOS1. Background: Time-resolved FRET reads energy transfer from a long-lived donor to a nearby acceptor.

Assay [2] has as its system pERK in LXF289 cells (SOS1 N233Y). Briefly: pERK inhibition in SOS1 N233Y mutant LXF289 cells (Example E). To be noted: Homo sapiens, LXF-289, LXF289 cell line, 1 hour with compound. Format: cell-based. An excerpt: (§1) Three cell lines harboring SOS1 N233Y activation mutations, LXF289 (DSMZ, Leibniz Institute, Germany) RL95-2 (ATCC CRL-1671); and OCI AML-5 (DSMZ, Leibniz Institute, Germany) were used in the studies.

In assay [3] the test system is pERK in RL95-2 cells (SOS1 N233Y). Briefly: pERK inhibition in SOS1 N233Y mutant RL95-2 cells (Example E). The class given is cell-based. The settings on record: Homo sapiens, RL95-2 cell line, 1 hour with compound.
From the text: as §1

Assay [4] has as its system pERK in Kasuma-1 (Kasumi) cells (NF-1 mutant). The experiment in a line: pERK inhibition in NF-1 mutant Kasumi cells (Example F). The class given is cell-based. The settings on record: 1 h, read-out: IC50, pERK inhibition.
Procedure: (§2) The formaldehyde was discarded from the plates and 150 μL of ice-cold methanol was added to permeabilize the cells for 10 minutes at −20° C. The methanol was discarded from each of the plates and any liquid remaining in the plate by tapping the plate against paper towels. […] The plates were incubated overnight at 4° C. on a shaker.
(§3) On Assay day 2, the primary antibody solution was removed. […] The secondary antibody solution as removed and each plate was washed with PBST 3× times. Any liquid remaining was discarded and the plate was imaged using the Licor Odyssey machine according to the manufacturer's instruction, using a set focus length at 3 mm and both 800 nm and 700 nm filters. The GAPDH normalized scan values for each well were divided by the average of vehicle wells to get the % of pERK inhibition. The IC50 values were then calculated with the Graph pad Prism software.
Assay [5] concerns pERK in OCI AML-5 cells (SOS1 N233Y). Briefly: pERK inhibition in SOS1 N233Y mutant OCI AML-5 cells (Example E). The settings on record: Homo sapiens, OCI AML-5 cell line, 1 hour with compound. The class given is cell-based.
From the text: as §1

A further assay relates to pERK in MKN1 cells. Briefly: cells. The class given is cell-based. To be noted: Homo sapiens, MKN-1, pERK inhibition, In-Cell Western; MKN1 or H358 cells (Table 24 does not say which); 0.5-1 hour incubation; read-out: IC50.
Assay [6] concerns pERK in NCI-H1435 cells (NF-1 mutant). The experiment in a line: pERK inhibition in NF-1 mutant NCI-H1435 cells (Example F). The class given is cell-based. To be noted: NCI-H1435, 1 h, read-out: IC50, pERK inhibition.
Procedure: as §2, §3

Our source for the Ki and IC50 values is US11702418B2, “SOS1 inhibitors” (priority 2019, dated 2023).

Sequence of recombinant human SOS1 polypeptide (amino acids 560-1049) (Q07889 560-1049): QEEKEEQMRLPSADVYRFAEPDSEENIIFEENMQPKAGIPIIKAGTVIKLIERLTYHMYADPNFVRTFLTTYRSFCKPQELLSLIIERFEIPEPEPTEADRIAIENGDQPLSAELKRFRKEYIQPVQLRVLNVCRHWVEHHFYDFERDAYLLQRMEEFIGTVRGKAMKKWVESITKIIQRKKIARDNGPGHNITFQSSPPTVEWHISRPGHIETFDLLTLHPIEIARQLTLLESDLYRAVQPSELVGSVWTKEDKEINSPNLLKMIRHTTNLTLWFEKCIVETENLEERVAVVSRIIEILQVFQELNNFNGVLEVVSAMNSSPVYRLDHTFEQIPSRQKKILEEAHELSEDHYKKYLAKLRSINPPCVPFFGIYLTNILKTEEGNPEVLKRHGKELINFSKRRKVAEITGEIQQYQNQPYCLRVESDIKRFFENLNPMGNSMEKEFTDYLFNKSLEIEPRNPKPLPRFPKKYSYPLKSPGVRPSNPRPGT
Procedure for pERK in MKN1 cells: The cells were incubated for approximately 0.5-1 hour with the compounds solubilized in DMSO at 37° C. Cells were immediately fixed by adding 50 μL of 4% formaldehyde to all wells in a fume hood and the plates were incubated for 20 minutes at room temperature. The formaldehyde was discarded from the plates and 150 μL of ice-cold methanol was added to permeabilize the cells for 10 minutes at −20° C. The methanol was discarded from each of the plates and any liquid remaining in the plate by tapping the plate against paper towels. […] The plates were incubated overnight at 4° C. on a shaker.
as §3

For the compound `Cc1c([C@@H](C)Nc2nnc(C)c3ccc(N4CCn5nccc5C4)cc23)cccc1C(F)(F)F` [Example 6-10, (R)-7-(6,7-dihydropyrazolo[1,5-a]pyrazin-5(4H)-yl)-4-methyl-N-(1-(2-methyl-3-(trifluoromethyl)phenyl)ethyl)phthalazin-1-amine], the Ki (in general, the dissociation constant of the complex between target and ligand, obtained from inhibition or displacement) in assay [1] is < 0.01 nM. Besides, the IC50 (usually the concentration at which inhibition is half-maximal) is 294 nM in assay [2]; 214 nM in assay [3]; 902 nM in assay [4]; 333 nM in assay [5]; 271 nM with pERK in MKN1 cells; 542 nM in assay [6].
For `Cc1c([C@@H](C)Nc2nnc(C)c3ccc(N4CCN(C(=O)C5(C(F)(F)F)CC5)CC4)cc23)cccc1C(F)(F)F` [Example 11-3, (R)-(4-(1-methyl-4-((1-(2-methyl-3-(trifluoromethyl)phenyl)ethyl)amino)phthalazin-6-yl)piperazin-1-yl)(1-(trifluoromethyl)cyclopropyl)methanone], the Ki in assay [1] was < 0.01 nM. In addition, the IC50 in the assay on pERK in MKN1 cells was 48 nM; in assay [6], 62 nM.
With `Cc1c(C(F)F)cccc1[C@@H](C)Nc1nnc(C)c2ccc(N3CCNCC3)cc12` [Example 10-4, (R)-N-(1-(3-(difluoromethyl)-2-methylphenyl)ethyl)-4-methyl-7-(piperazin-1-yl)phthalazin-1-amine], in assay [1], the Ki was found to be 0.08 nM. For the same compound, the IC50 in the assay on pERK in MKN1 cells came to 14 nM; in assay [6] it was 33 nM.
Consider `Cc1c([C@@H](C)Nc2nnc(C)c3ccc(N4CCN(C(=O)C5CC5)CC4)cc23)cccc1C(F)(F)F` [Example 6-11, (R)-cyclopropyl(4-(1-methyl-4-((1-(2-methyl-3-(trifluoromethyl)phenyl)ethyl)amino)phthalazin-6-yl)piperazin-1-yl)methanone], for which, in assay [1], the Ki was determined as 9.1 nM. The IC50 in assay [2] worked out at 41 nM; in assay [3], 20 nM; in assay [4] it was 97 nM; in assay [5] it was 32 nM; in the assay on pERK in MKN1 cells, 31 nM; in assay [6], 65 nM.
On to `Cc1c([C@@H](C)Nc2nnc(C)c3ccc(N4CCN(C(=O)[C@@H]5CCOC5)CC4)cc23)cccc1C(F)(F)F` [Example 11-4, (4-(1-methyl-4-(((R)-1-(2-methyl-3-(trifluoromethyl)phenyl)ethyl)amino)phthalazin-6-yl)piperazin-1-yl)((R)-tetrahydrofuran-3-yl)methanone], for which the Ki in assay [1] was 0.01 nM. The figures for the IC50 (in the assay with pERK in MKN1 cells; in assay [6]) were 25 nM and 19 nM, respectively.
As to `Cc1c([C@@H](C)Nc2nnc(C)c3ccc(N4CCC(C)(N)CC4)cc23)cccc1C(F)(F)F` [Example 10-9, (R)-7-(4-amino-4-methylpiperidin-1-yl)-4-methyl-N-(1-(2-methyl-3-(trifluoromethyl)phenyl)ethyl)phthalazin-1-amine], the Ki in assay [1] amounted to 0.05 nM. The half-maximal inhibitory concentration (IC50) with pERK in MKN1 cells stood at 54 nM; in assay [6], 152 nM.
